Columns and labels:
[1] = test system: GALAP Galium; test: Postemergence herbicidal evaluation, GALAP; format: in vivo, Galium aparine; set-up: scale not given here; conditions: postemergence spray, rated about two-three weeks after treatment
In short: (§1)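 Plants are raised for roughly two weeks, then treated postemergence with compound dispersed in acetone/water (80/20) plus 1.0% seed oil adjuvant, at rates of about 0.006 kg to 0.400 kg per hectare. After greenhouse care, damage is scored two to three weeks later.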

[2] = test system: ORYSAT Rice, Tebonnet; test: Preemergence herbicidal evaluation, ORYSAT; format: in vivo, Oryza sativa, (L.); set-up: scale not given here; conditions: preemergence
In short: (§2)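 Visual ratings were taken four to five weeks after application. Before that, cups sown with seed in potting soil received a spray of compound dissolved in aqueous acetone, equivalent to about 0.013 to 0.800 kg/ha, and stood on greenhouse benches under conventional care.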

[3] = test system: CASOB Sicklepod; test: Postemergence herbicidal evaluation, CASOB; format: in vivo, Cassia obtusifolia, L.; set-up: scale not given here; conditions: postemergence spray, rated about two-three weeks after treatment
In short: as §1

[4] = test system: ECHOG Barnyardgrass; test: Preemergence herbicidal evaluation, ECHOG; format: in vivo, Echinochloa crus-galli, (L.) Beau; set-up: scale not given here; conditions: preemergence
In short: as §2

[5] = test system: SETVI Foxtail, Green; test: Postemergence herbicidal evaluation, SETVI; format: in vivo, Setaria viridis, (L.) Beau; set-up: scale not given here; conditions: postemergence spray, rated about two-three weeks after treatment
In short: as §1

[6] = test system: ECHOG Barnyardgrass; test: Postemergence herbicidal evaluation, ECHOG; format: in vivo, Echinochloa crus-galli, (L.) Beau; set-up: scale not given here; conditions: postemergence spray, rated about two-three weeks after treatment
In short: as §1

[7] = test system: AMBEL Ragweed, Common; test: Postemergence herbicidal evaluation, AMBEL; format: in vivo, Ambrosia artemisifolia, L.; set-up: scale not given here; conditions: postemergence spray, rated about two-three weeks after treatment
In short: as §1

[8] = test system: ABUTH Velvetleaf; test: Preemergence herbicidal evaluation, ABUTH; format: in vivo, Abutilon theophrasti, Medic.; set-up: scale not given here; conditions: preemergence
In short: as §2

[9] = test system: ABUTH Velvetleaf; test: Postemergence herbicidal evaluation, ABUTH; format: in vivo, Abutilon theophrasti, Medic.; set-up: scale not given here; conditions: postemergence spray, rated about two-three weeks after treatment
In short: as §1

[10] = test system: ZEAMX Corn, Field; test: Preemergence herbicidal evaluation, ZEAMX; format: in vivo, Zea mays, L. (Sammel-Bezeichnung); set-up: scale not given here; conditions: preemergence
In short: as §2

[11] = test system: IPOHE Morningglory, Ivyleaf; test: Postemergence herbicidal evaluation, IPOHE; format: in vivo, Ipomoea hederacea, (L.) Jacq.; set-up: scale not given here; conditions: postemergence spray, rated about two-three weeks after treatment
In short: as §1

[12] = test system: CASOB Sicklepod; test: Preemergence herbicidal evaluation, CASOB; format: in vivo, Cassia obtusifolia, L.; set-up: scale not given here; conditions: preemergence
In short: as §2

[13] = test system: GALAP Galium; test: Preemergence herbicidal evaluation, GALAP; format: in vivo, Galium aparine; set-up: scale not given here; conditions: preemergence
In short: as §2

[14] = test system: ORYSAT Rice, Tebonnet; test: Postemergence herbicidal evaluation, ORYSAT; format: in vivo, Oryza sativa, (L.); set-up: scale not given here; conditions: postemergence spray, rated about two-three weeks after treatment
In short: as §1

[15] = test system: TRZAWR Wheat, Winter, cv Riband; test: Postemergence herbicidal evaluation, TRZAWR; format: in vivo, Triticum aestivum; set-up: scale not given here; conditions: postemergence spray, rated about two-three weeks after treatment
In short: as §1

[16] = test system: GLXMAW Soybean, Williams; test: Preemergence herbicidal evaluation, GLXMAW; format: in vivo, Glycine max, (L.) Merr. cv Williams; set-up: scale not given here; conditions: preemergence
In short: as §2

[17] = test system: CHEAL Lambsquarters, Common; test: Postemergence herbicidal evaluation, CHEAL; format: in vivo, Chenopodium album, L.; set-up: scale not given here; conditions: postemergence spray, rated about two-three weeks after treatment
In short: as §1

[18] = test system: AMBEL Ragweed, Common; test: Preemergence herbicidal evaluation, AMBEL; format: in vivo, Ambrosia artemisifolia, L.; set-up: scale not given here; conditions: preemergence
In short: as §2

[19] = test system: SETVI Foxtail, Green; test: Preemergence herbicidal evaluation, SETVI; format: in vivo, Setaria viridis, (L.) Beau; set-up: scale not given here; conditions: preemergence
In short: as §2

[20] = test system: CHEAL Lambsquarters, Common; test: Preemergence herbicidal evaluation, CHEAL; format: in vivo, Chenopodium album, L.; set-up: scale not given here; conditions: preemergence
In short: as §2

[21] = test system: IPOHE Morningglory, Ivyleaf; test: Preemergence herbicidal evaluation, IPOHE; format: in vivo, Ipomoea hederacea, (L.) Jacq.; set-up: scale not given here; conditions: preemergence
In short: as §2

[22] = test system: TRZAWR Wheat, Winter, cv Riband; test: Preemergence herbicidal evaluation, TRZAWR; format: in vivo, Triticum aestivum; set-up: scale not given here; conditions: preemergence
In short: as §2

[23] = test system: ZEAMX Corn, Field; test: Postemergence herbicidal evaluation, ZEAMX; format: in vivo, Zea mays, L. (Sammel-Bezeichnung); set-up: scale not given here; conditions: postemergence spray, rated about two-three weeks after treatment
In short: as §1

[24] = test system: GLXMAW Soybean, Williams; test: Postemergence herbicidal evaluation, GLXMAW; format: in vivo, Glycine max, (L.) Merr. cv Williams; set-up: scale not given here; conditions: postemergence spray, rated about two-three weeks after treatment
In short: as §1

Structure (SMILES): COc1ccc(C)cc1-n1nnc2cc(F)c(-n3c(=O)cc(C(F)(F)F)n(C)c3=O)cc21 [Example 18, 3-[5-fluoro-1-(2-methoxy-5-methylphenyl)-1H-1,2,3-benzotriazol-6-yl]-1-methyl-6-(trifluoromethyl)-2,4(1H,3H)-pyrimidinedione]
- Postemergence herbicidal rating GALAP ([1]; 0.008 kg/ha): 1.0
- Postemergence herbicidal rating GALAP ([1]; 0.016 kg/ha): 3.0
- Postemergence herbicidal rating GALAP ([1]; 0.032 kg/ha): 5.0
- Postemergence herbicidal rating GALAP ([1]; 0.062 kg/ha): 5.0
- ORYSAT herbicidal rating ([2]; rate 0.016 kg/ha): 3.0
- ORYSAT herbicidal rating ([2]; rate 0.032 kg/ha): 6.0
- ORYSAT herbicidal rating ([2]; rate 0.062 kg/ha): 6.0
- ORYSAT herbicidal rating ([2]; rate 0.125 kg/ha): 6.0
- Postemergence herbicidal rating CASOB ([3]; 0.008 kg/ha): 0.0
- Postemergence herbicidal rating CASOB ([3]; 0.016 kg/ha): 7.0
- Postemergence herbicidal rating CASOB ([3]; 0.032 kg/ha): 6.0
- Postemergence herbicidal rating CASOB ([3]; 0.062 kg/ha): 7.0
- ECHCG herbicidal rating ([4]; rate 0.016 kg/ha): 6.0
- ECHCG herbicidal rating ([4]; rate 0.032 kg/ha): 8.0
- ECHCG herbicidal rating ([4]; rate 0.062 kg/ha): 9.0
- ECHCG herbicidal rating ([4]; rate 0.125 kg/ha): 9.0
- Postemergence herbicidal rating SETVI ([5]; 0.008 kg/ha): 0.0
- Postemergence herbicidal rating SETVI ([5]; 0.016 kg/ha): 5.0
- Postemergence herbicidal rating SETVI ([5]; 0.032 kg/ha): 9.0
- Postemergence herbicidal rating SETVI ([5]; 0.062 kg/ha): 9.0
- Postemergence herbicidal rating ECHCG ([6]; 0.008 kg/ha): 0.0
- Postemergence herbicidal rating ECHCG ([6]; 0.016 kg/ha): 2.0
- Postemergence herbicidal rating ECHCG ([6]; 0.032 kg/ha): 2.0
- Postemergence herbicidal rating ECHCG ([6]; 0.062 kg/ha): 4.0
- Postemergence herbicidal rating AMBEL ([7]; 0.008 kg/ha): 1.0
- Postemergence herbicidal rating AMBEL ([7]; 0.016 kg/ha): 6.0
- Postemergence herbicidal rating AMBEL ([7]; 0.032 kg/ha): 6.0
- Postemergence herbicidal rating AMBEL ([7]; 0.062 kg/ha): 9.0
- ABUTH herbicidal rating ([8]; rate 0.016 kg/ha): 6.0
- ABUTH herbicidal rating ([8]; rate 0.032 kg/ha): 9.0
- ABUTH herbicidal rating ([8]; rate 0.062 kg/ha): 9.0
- ABUTH herbicidal rating ([8]; rate 0.125 kg/ha): 9.0
- Postemergence herbicidal rating ABUTH ([9]; 0.008 kg/ha): 9.0
- Postemergence herbicidal rating ABUTH ([9]; 0.016 kg/ha): 9.0
- Postemergence herbicidal rating ABUTH ([9]; 0.032 kg/ha): 9.0
- Postemergence herbicidal rating ABUTH ([9]; 0.062 kg/ha): 9.0
- ZEAMX herbicidal rating ([10]; rate 0.016 kg/ha): 5.0
- ZEAMX herbicidal rating ([10]; rate 0.032 kg/ha): 5.0
- ZEAMX herbicidal rating ([10]; rate 0.062 kg/ha): 7.0
- ZEAMX herbicidal rating ([10]; rate 0.125 kg/ha): 8.5
- Postemergence herbicidal rating IPOHE ([11]; 0.008 kg/ha): 9.0
- Postemergence herbicidal rating IPOHE ([11]; 0.016 kg/ha): 9.0
- Postemergence herbicidal rating IPOHE ([11]; 0.032 kg/ha): 9.0
- Postemergence herbicidal rating IPOHE ([11]; 0.062 kg/ha): 9.0
- CASOB herbicidal rating ([12]; rate 0.016 kg/ha): 2.5
- CASOB herbicidal rating ([12]; rate 0.032 kg/ha): 0.0
- CASOB herbicidal rating ([12]; rate 0.062 kg/ha): 0.5
- CASOB herbicidal rating ([12]; rate 0.125 kg/ha): 5.0
- GALAP herbicidal rating ([13]; rate 0.032 kg/ha): 1.0
- GALAP herbicidal rating ([13]; rate 0.062 kg/ha): 5.0
- GALAP herbicidal rating ([13]; rate 0.125 kg/ha): 9.0
- Postemergence herbicidal rating ORYSAT ([14]; 0.008 kg/ha): 3.5
- Postemergence herbicidal rating ORYSAT ([14]; 0.016 kg/ha): 4.0
- Postemergence herbicidal rating ORYSAT ([14]; 0.032 kg/ha): 5.5
- Postemergence herbicidal rating ORYSAT ([14]; 0.062 kg/ha): 5.5
- Postemergence herbicidal rating TRZAWR ([15]; 0.008 kg/ha): 3.5
- Postemergence herbicidal rating TRZAWR ([15]; 0.016 kg/ha): 4.5
- Postemergence herbicidal rating TRZAWR ([15]; 0.032 kg/ha): 5.5
- Postemergence herbicidal rating TRZAWR ([15]; 0.062 kg/ha): 4.5
- GLXMAW herbicidal rating ([16]; rate 0.016 kg/ha): 3.0
- GLXMAW herbicidal rating ([16]; rate 0.032 kg/ha): 4.5
- GLXMAW herbicidal rating ([16]; rate 0.062 kg/ha): 7.5
- GLXMAW herbicidal rating ([16]; rate 0.125 kg/ha): 9.0
- Postemergence herbicidal rating CHEAL ([17]; 0.008 kg/ha): 1.0
- Postemergence herbicidal rating CHEAL ([17]; 0.016 kg/ha): 7.0
- Postemergence herbicidal rating CHEAL ([17]; 0.032 kg/ha): 9.0
- Postemergence herbicidal rating CHEAL ([17]; 0.062 kg/ha): 9.0
- AMBEL herbicidal rating ([18]; rate 0.016 kg/ha): 4.0
- AMBEL herbicidal rating ([18]; rate 0.032 kg/ha): 6.0
- AMBEL herbicidal rating ([18]; rate 0.062 kg/ha): 9.0
- AMBEL herbicidal rating ([18]; rate 0.125 kg/ha): 8.0
- SETVI herbicidal rating ([19]; rate 0.016 kg/ha): 9.0
- SETVI herbicidal rating ([19]; rate 0.032 kg/ha): 9.0
- SETVI herbicidal rating ([19]; rate 0.062 kg/ha): 9.0
- SETVI herbicidal rating ([19]; rate 0.125 kg/ha): 9.0
- CHEAL herbicidal rating ([20]; rate 0.016 kg/ha): 9.0
- CHEAL herbicidal rating ([20]; rate 0.032 kg/ha): 9.0
- CHEAL herbicidal rating ([20]; rate 0.062 kg/ha): 9.0
- CHEAL herbicidal rating ([20]; rate 0.125 kg/ha): 9.0
- IPOHE herbicidal rating ([21]; rate 0.016 kg/ha): 7.5
- IPOHE herbicidal rating ([21]; rate 0.032 kg/ha): 9.0
- IPOHE herbicidal rating ([21]; rate 0.062 kg/ha): 8.0
- IPOHE herbicidal rating ([21]; rate 0.125 kg/ha): 9.0
- TRZAWR herbicidal rating ([22]; rate 0.016 kg/ha): 2.0
- TRZAWR herbicidal rating ([22]; rate 0.032 kg/ha): 3.0
- TRZAWR herbicidal rating ([22]; rate 0.062 kg/ha): 6.0
- TRZAWR herbicidal rating ([22]; rate 0.125 kg/ha): 7.0
- Postemergence herbicidal rating ZEAMX ([23]; 0.008 kg/ha): 4.5
- Postemergence herbicidal rating ZEAMX ([23]; 0.016 kg/ha): 5.5
- Postemergence herbicidal rating ZEAMX ([23]; 0.032 kg/ha): 6.0
- Postemergence herbicidal rating ZEAMX ([23]; 0.062 kg/ha): 6.0
- melting point: 175 to 181 °C
- Postemergence herbicidal rating GLXMAW ([24]; 0.008 kg/ha): 4.5
- Postemergence herbicidal rating GLXMAW ([24]; 0.016 kg/ha): 4.5
- Postemergence herbicidal rating GLXMAW ([24]; 0.032 kg/ha): 6.5
- Postemergence herbicidal rating GLXMAW ([24]; 0.062 kg/ha): 6.0

From patent publication US20020111274A1, “1-alkyl-3-[1-(substituted phenyl) benzotriazol-6-yl] uracils” (BASF Aktiengesellschaft, priority 2000, published 2002)
